Columns and labels:
[1] = tested on: Patients suffering from colon cancer or breast cancer; experiment: Example 3: appearance of PPE under standard chemotherapy; format: in vivo, human
Protocol: (§1) Patients suffering from colon cancer or breast cancer were treated from January 2005 up to March 2007 with the following standard chemotherapy: • AIO protocol: high dose infusion 5FU24H+leucovorin • FOLFOX 4 protocol: day 1: oxaliplatin, 85 mg/m2, and leucovorin, 200 mg/m2, concurrently i.v., then 5-FU, 400 mg/m2 i.v. bolus followed by 600 mg/m2 continuous i.v.; day 2: leucovorin, 200 mg/m2 i.v., then 5-FU, 400 mg/m2 i.v. bolus, followed by 600 mg/m2 continuous i.v.; repeated every 2 weeks. • Oral capecitabine.
Palmar plantar erythrodysesthesia (PPE) appeared in 30% of the patients treated with 5-FU and in 66% of those treated with capecitabine.

cancer patients = conditions: colon / colorectal cancer, versus fluorouracil+leucovorin; cited from earlier work
[2] = tested on: Patients suffering from colon cancer or breast cancer; experiment: Example 3: response of PPE to allopurinol cream treatment; format: in vivo, human
Protocol: as §1
The cream comprising allopurinol as prepared in example 1 was topically applied by the patients 4-5 times a day to the hands and feet. In case of no response to this treatment and persistence of PPE symptoms, the dosage of chemotherapy was reduced and some cases interrupted.

[3] = biological target: T1, deoxythymidine phosphorylase (thymidine phosphorylase, TP) (Homo sapiens, UniProt P19971); conditions: Gallo et al. J Biological Chemistry 1968; cited from earlier work
T1 sequence (P19971 11-482): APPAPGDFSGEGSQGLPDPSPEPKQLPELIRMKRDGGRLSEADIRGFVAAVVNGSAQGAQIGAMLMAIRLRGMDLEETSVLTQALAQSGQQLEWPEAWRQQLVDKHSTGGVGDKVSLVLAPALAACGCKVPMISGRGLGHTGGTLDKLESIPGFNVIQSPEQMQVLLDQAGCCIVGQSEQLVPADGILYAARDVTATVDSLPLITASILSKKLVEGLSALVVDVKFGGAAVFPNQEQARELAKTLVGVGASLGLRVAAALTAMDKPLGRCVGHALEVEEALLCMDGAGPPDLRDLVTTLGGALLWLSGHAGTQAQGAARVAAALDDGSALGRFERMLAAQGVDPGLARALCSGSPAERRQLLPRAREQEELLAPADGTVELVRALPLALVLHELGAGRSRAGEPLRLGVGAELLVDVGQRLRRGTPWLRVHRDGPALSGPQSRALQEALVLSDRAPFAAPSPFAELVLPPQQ

uridine phosphorylase = uridine phosphorylase (Homo sapiens, UniProt Q16831); conditions: Gallo et al. J Biological Chemistry 1968; cited from earlier work
[4] = cited from earlier work
[5] = tested on: Patients with colorectal carcinoma; experiment: Example 2: treatment of palmar plantar erythrodysesthesia with the allopurinol cream; format: in vivo, human
Protocol: Patients with colorectal carcinoma were administered chemotherapy (adjuvant or palliative) following the usual protocols. As soon as the first symptoms of palmar planar erythrodysesthesia appeared after starting chemotherapy, the patients were administered the cream prepared in example 1.
The characteristics of the patients treated with the cream and the chemotherapeutic regimen that they were administered were as follow:
Patients with advanced or metastatic colorectal cancer: 8
Patients with resected stage III colon cancer: 2
• 5FU+LV bolus (Mayo protocol): 1 patient • 5FU+LV infusional (AIO protocol): 7 patients • Capecitabine monotherapy: 2 patients
The cream was applied 5 times per day, to the palms and soles, as long as the chemotherapy was applied. The frequency was reduced in between cycles and increased shortly before and during chemotherapy administration.

[6] = standard chemotherapy, before allopurinol treatment
[7] = 2 PPE patients on FOLFOX-4 chemotherapy
[8] = 3% cream 4-5 times a day to hands and feet
[9] = 5 PPE patients on AIO chemotherapy
[10] = 8 PPE patients on Capecitabine chemotherapy
[11] = all 15 PPE patients, 3% cream 4-5 times a day
[12] = all 15 PPE patients, 3% cream 4-5 times a day, listed as allopiirinol

Sequence of uridine phosphorylase (Q16831 whole entry): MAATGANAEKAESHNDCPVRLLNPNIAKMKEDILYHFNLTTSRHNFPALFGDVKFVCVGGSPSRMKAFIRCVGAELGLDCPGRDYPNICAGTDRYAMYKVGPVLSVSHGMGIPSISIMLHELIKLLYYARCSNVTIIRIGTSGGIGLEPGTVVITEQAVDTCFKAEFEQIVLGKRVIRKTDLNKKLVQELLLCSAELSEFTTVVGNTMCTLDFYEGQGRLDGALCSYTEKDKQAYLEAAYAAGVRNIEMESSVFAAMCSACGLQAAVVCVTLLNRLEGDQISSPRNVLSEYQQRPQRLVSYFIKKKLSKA

With `O=c1[nH]cc(F)c(=O)[nH]1` [5-FU, Fluorouracil] the “PPE symptoms, % of patients” value [1, 6] was 30%.

For `CCCCCOC(=O)Nc1nc(=O)n([C@@H]2O[C@H](C)[C@@H](O)[C@H]2O)cc1F` [Capecitabine], the “Cumulative dosis with capecitabine until apprearauce of PPE, Median” value ([1]; patients who developed PPE) was 81.000 mg, the “PPE symptoms, % of patients” value [1, 6] was 66% and the “PPE symptoms, n (of patients treated)” value [1, 6] was 8(12). The “PPE symptoms, % of patients” value ([1]; standard chemotherapy, before allopurinol treatment, listed as capecitabine) was 66%, the “incidence of hand-foot syndrome (PPE), all grades” value (cancer patients) was 49-60% and the “incidence of hand-foot syndrome (PPE), severe grades” value (cancer patients) was 17%.

For `Oc1ncnc2[nH]ncc12` [allopurinol, 1,5-dihydro-4H-pyrazolo[3,4-d]pyrimidin-4-one], the “NR: no response, %” value [2, 7] was 50%, the “PR: Partial remission, %” value [2, 7] was 50% and the “TR: total response, %” value [2, 7] was 50%. The “patients that had developed PPE in whom chemotherapy was completed as planned” value [2, 8] was 86%, the “toxic effects associated to the topical treatment” value [2, 8] was “No toxics effects” and the “CR: complete remission, %” value [2, 9] was 80%. For the same compound, the “NR: no response, %” value [2, 9] was 0%, the “PR: Partial remission, %” value [2, 9] was 20% and the “TR: total response, %” value [2, 9] was 100%. The “CR: complete remission, %” value [2, 10] was 62.5%^, the “NR: no response, %” value [2, 10] was 12.5% and the “PR: Partial remission, %” value [2, 10] was 25%. For the same compound, the “TR: total response, %” value [2, 10] was 87%, the quality of life ([2]; PPE patients treated with the 3% cream) was “significantly improved” and the “CR: complete remission, %” value [2, 11] was 66%. The “NR: no response, %” value [2, 11] was 13.3%^, the “PR: Partial remission, %” value [2, 11] was 20% and the “TR: total response, %” value ([2]; all 15 PPE patients, 3% cream 4-5 times a day to hands and feet) was 86%. For the same compound, the “TR: total response, %” value ([2]; all 15 PPE patients, 3% cream 4-5 times a day to hands and feet, listed as allopiirinol) was 86.6%^, the “CR: complete remission, %” value [2, 12] was 66.6%^ and the “PR: Partial remission, %” value [2, 12] was 20.0%^. The “inhibition of thymidine phosphorylase (TP)” value [3] was “inhibits TP”, the “inhibition of uridine phosphorylase” value (uridine phosphorylase) was “not uridine phosphorylase” and the “solubility in chloroform and in ether” value [4] was “practically insoluble”. The “solubility in dilute solutions of alkali hydroxides” value [4] was “dissolves”, the “solubility in water and alcohol” value [4] was “very slightly soluble” and the “symptoms of PPE following the topical treatment” value ([5]; 10 patients on 5FU+LV (Mayo or AIO) or capecitabine, 3% cream of example 1, 5 times per day to palms and soles) was “the symptoms of PPE disappeared”. The completion of chemotherapy ([5]; 10 patients on 5FU+LV or capecitabine, 3% cream, 5 times per day to palms and soles) was “completed without any dose reduction or delay in the treatment due to PPE” and the “appearance of PPE” value ([5]; topical application to cancer patients being treated with chemotherapy (summary statement)) was “completely avoided the appearance of PPE”.
